Measurements reported in PubChem BioAssay (NCI).
“And” between values parts separate entries of the source, which are not always exact repeats. Identical values can stand only once.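 These data come from cells grown in 96-well plates and exposed to compound for 48 hours at five concentrations. Here, GI50 denotes the concentration required for 50% inhibition of growth. TGI: concentration producing complete growth inhibition.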

Key:
Assay in all cases: NCI tumour cell line growth inhibition, 48 h
NCI-H23 lung = test system: NCI-H23 lung
HOP-62 NSCLC = test system: HOP-62 NSCLC
SK-OV-3 ovarian = test system: SK-OV-3 ovarian
COLO 205 colon = test system: COLO 205 colon
SR leukemia = test system: SR leukemia
MALME-3M melanoma = test system: MALME-3M melanoma
SF-295 CNS = test system: SF-295 CNS
MDA-MB-231 breast = test system: MDA-MB-231 breast
BT-549 breast = test system: BT-549 breast
MCF7 breast = test system: MCF7 breast

COc1ccc2nc(C(=O)c3ccccc3)c(C)cc2c1
TGI (NCI-H23 lung): 11.1 µM | TGI (HOP-62 NSCLC): 37.1 µM | TGI (SK-OV-3 ovarian): 15.8 µM | TGI (COLO 205 colon): > 34.5 µM | TGI (SR leukemia): > 100 µM | TGI (MALME-3M melanoma): > 39.1 µM | TGI (SF-295 CNS): 9.23 µM

COC1CC(O)C(OC(=O)c2ccccc2)C(C)O1 (stereo not drawn)
TGI (NCI-H23 lung): > 100 µM | TGI (HOP-62 NSCLC): > 100 µM | TGI (COLO 205 colon): > 100 µM | TGI (SR leukemia): > 100 µM | TGI (MALME-3M melanoma): > 100 µM | TGI (SF-295 CNS): > 100 µM

Cc1ccc2nc(NC(=O)C(=O)C(C#N)c3ccc(Cl)cc3)sc2c1 (stereo not drawn)
TGI (NCI-H23 lung): > 50 µM | TGI (HOP-62 NSCLC): > 50 µM | TGI (SK-OV-3 ovarian): > 50 µM | TGI (COLO 205 colon): > 50 µM | TGI (MALME-3M melanoma): > 50 µM | TGI (SF-295 CNS): > 50 µM

COc1ccccc1NC(=O)C1=C(C)NC(C)=C(C(=O)Nc2ccccc2OC)C1/C=C/c1ccccc1
TGI (NCI-H23 lung): > 100 µM | TGI (HOP-62 NSCLC): > 100 µM | TGI (SK-OV-3 ovarian): > 100 µM | TGI (COLO 205 colon): > 100 µM | TGI (SR leukemia): > 100 µM | TGI (MALME-3M melanoma): > 100 µM | TGI (SF-295 CNS): > 100 µM

COc1ccc(-c2nc(-c3nc4ccc(C)cc4[nH]3)cc3c2[nH]c2ccccc23)cc1
GI50 (NCI-H23 lung): 5.36 µM | TGI (NCI-H23 lung): > 100 µM | GI50 (HOP-62 NSCLC): 5.78 µM | TGI (HOP-62 NSCLC): > 100 µM | GI50 (MDA-MB-231 breast): 6.88 µM | TGI (MDA-MB-231 breast): > 100 µM | GI50 (SK-OV-3 ovarian): 61 µM | TGI (SK-OV-3 ovarian): > 100 µM | GI50 (BT-549 breast): 6.88 µM | TGI (BT-549 breast): > 100 µM | GI50 (COLO 205 colon): 2.83 µM | TGI (COLO 205 colon): 8.21 µM | GI50 (SR leukemia): 2.68 µM | TGI (SR leukemia): 27.8 µM | GI50 (MCF7 breast): 3.06 µM | TGI (MCF7 breast): 56.3 µM | GI50 (MALME-3M melanoma): 5.1 µM | TGI (MALME-3M melanoma): 72.5 µM

c1ccc(OCCC[P+](c2ccccc2)(c2ccccc2)c2ccccc2)cc1
GI50 (NCI-H23 lung): 1.81 µM | TGI (NCI-H23 lung): 10.9 µM | GI50 (HOP-62 NSCLC): 4.55 µM | TGI (HOP-62 NSCLC): 42.8 µM | GI50 (MDA-MB-231 breast): 2.33 µM | TGI (MDA-MB-231 breast): 11.2 µM | GI50 (SK-OV-3 ovarian): 4.11 µM | TGI (SK-OV-3 ovarian): 32.4 µM | GI50 (BT-549 breast): 1.42 µM | TGI (BT-549 breast): 17.1 µM | GI50 (COLO 205 colon): 0.97 µM | TGI (COLO 205 colon): 3.47 µM | GI50 (SR leukemia): 0.646 µM | TGI (SR leukemia): 11.4 µM | GI50 (MCF7 breast): 0.677 µM | TGI (MCF7 breast): 10.3 µM | GI50 (SF-295 CNS): 1.97 µM | TGI (SF-295 CNS): 7.77 µM

Cc1cc(-c2c(F)cc3c4nn([C@H]5CC[C@@H](N(C)C)CC5)c(=O)c-4cn(C4CC4)c3c2F)cc(C)n1
GI50 (NCI-H23 lung): 0.0207 µM | TGI (NCI-H23 lung): 0.079 µM and 0.554 µM | GI50 (HOP-62 NSCLC): 0.018 µM | TGI (HOP-62 NSCLC): 0.0784 µM and 0.455 µM | GI50 (SK-OV-3 ovarian): 0.0546 µM | TGI (SK-OV-3 ovarian): 0.141 µM and 0.708 µM | TGI (BT-549 breast): 10.8 µM | GI50 (COLO 205 colon): 0.0366 µM | TGI (COLO 205 colon): 0.0936 µM and 0.889 µM | GI50 (SR leukemia): 0.002 µM | TGI (SR leukemia): 0.0268 µM | TGI (MCF7 breast): > 100 µM | GI50 (MALME-3M melanoma): 0.0318 µM | TGI (MALME-3M melanoma): 0.208 µM and 1.67 µM | TGI (SF-295 CNS): 0.717 µM

CCOC(=O)/C(=C/c1cccc(Cl)c1)N(CC)CC
TGI (NCI-H23 lung): > 100 µM | TGI (HOP-62 NSCLC): 77.8 µM | TGI (SK-OV-3 ovarian): > 100 µM | TGI (COLO 205 colon): > 100 µM | TGI (SR leukemia): > 100 µM | TGI (MALME-3M melanoma): > 100 µM | TGI (SF-295 CNS): > 100 µM

COc1ccc(/C=C/c2c(C(=O)/C=C/c3ccc(C(F)(F)F)cc3)c(C)nc3ccccc23)cc1
GI50 (SK-OV-3 ovarian): 2.24 µM | TGI (SK-OV-3 ovarian): 5.82 µM | GI50 (BT-549 breast): 1.8 µM | TGI (BT-549 breast): 4 µM | GI50 (COLO 205 colon): 2.1 µM | TGI (COLO 205 colon): 4.67 µM | GI50 (SR leukemia): 0.599 µM | TGI (SR leukemia): > 100 µM | GI50 (MCF7 breast): 1 µM | TGI (MCF7 breast): 3.4 µM | GI50 (MALME-3M melanoma): 1.71 µM | TGI (MALME-3M melanoma): 3.19 µM | GI50 (SF-295 CNS): 1.71 µM | TGI (SF-295 CNS): 3.28 µM

C/C(CN1C(=O)c2ccccc2C1=O)=N\NS(=O)(=O)c1cccc(C(=O)O)c1
TGI (NCI-H23 lung): > 100 µM | TGI (HOP-62 NSCLC): > 100 µM | TGI (SK-OV-3 ovarian): > 100 µM | TGI (COLO 205 colon): > 100 µM | TGI (SR leukemia): > 100 µM | TGI (MALME-3M melanoma): > 100 µM | TGI (SF-295 CNS): > 100 µM

CC1=C(C(=O)Nc2ccccc2)C(c2ccccc2Cl)C(C(=O)Nc2ccccc2)=C(C)N1
TGI (NCI-H23 lung): 71.7 µM | TGI (HOP-62 NSCLC): 38.5 µM | TGI (SK-OV-3 ovarian): 80 µM | TGI (COLO 205 colon): 34.3 µM | TGI (SR leukemia): 52.6 µM | TGI (MALME-3M melanoma): 39.7 µM | TGI (SF-295 CNS): 66.9 µM

COc1ccc(-c2ccc(/C=N/n3c(COc4ccccc4Cl)nn(CN4CCOCC4)c3=S)o2)c([N+](=O)[O-])c1
GI50 (NCI-H23 lung): 22.9 µM | TGI (NCI-H23 lung): 62.7 µM | GI50 (HOP-62 NSCLC): 30 µM | TGI (HOP-62 NSCLC): 85.5 µM | GI50 (SK-OV-3 ovarian): 25.7 µM | TGI (SK-OV-3 ovarian): > 100 µM | GI50 (BT-549 breast): 14.3 µM | TGI (BT-549 breast): 40.7 µM | GI50 (COLO 205 colon): 36.6 µM | TGI (COLO 205 colon): > 100 µM | GI50 (MCF7 breast): 19.4 µM | TGI (MCF7 breast): 47.4 µM | GI50 (MALME-3M melanoma): 18 µM | TGI (MALME-3M melanoma): 44.3 µM | GI50 (SF-295 CNS): 38.1 µM | TGI (SF-295 CNS): > 100 µM

CC(C)c1cccc(C(C)C)c1N1C(=O)C(=O)C(c2nc3ccccc3o2)C(=O)C1=O
TGI (NCI-H23 lung): > 100 µM | TGI (HOP-62 NSCLC): > 100 µM | TGI (SK-OV-3 ovarian): > 100 µM | TGI (COLO 205 colon): > 100 µM | TGI (MALME-3M melanoma): > 100 µM | TGI (SF-295 CNS): > 100 µM

S=C1Cc2c(-c3ccc(Br)cc3)cc(-c3ccccc3)nc2-c2ccccc2N1
TGI (NCI-H23 lung): 12.6 µM | TGI (HOP-62 NSCLC): 3.01 µM | TGI (MDA-MB-231 breast): 3.72 µM | TGI (SK-OV-3 ovarian): 3.27 µM | TGI (BT-549 breast): 18 µM | TGI (COLO 205 colon): 21.4 µM | TGI (MCF7 breast): > 100 µM | TGI (MALME-3M melanoma): 7.41 µM | TGI (SF-295 CNS): 5.4 µM

COc1ccc(C2=Nc3ccccc3SC(C)C2)cc1OC (stereo not drawn)
TGI (NCI-H23 lung): 38.5 µM | TGI (SK-OV-3 ovarian): 39.5 µM | TGI (COLO 205 colon): 40.6 µM | TGI (SR leukemia): 57.4 µM | TGI (MALME-3M melanoma): 42.8 µM | TGI (SF-295 CNS): 38 µM

[N-]=[N+]=NCCCn1c2c(c3ccc([N+](=O)[O-])cc3c1=O)C(=O)c1cc(Br)ccc1-2
GI50 (NCI-H23 lung): > 100 µM | TGI (NCI-H23 lung): > 100 µM | GI50 (HOP-62 NSCLC): 56.1 µM | TGI (HOP-62 NSCLC): > 100 µM | GI50 (MDA-MB-231 breast): > 100 µM | TGI (MDA-MB-231 breast): > 100 µM | GI50 (SK-OV-3 ovarian): > 100 µM | TGI (SK-OV-3 ovarian): > 100 µM | GI50 (BT-549 breast): > 100 µM | TGI (BT-549 breast): > 100 µM | GI50 (COLO 205 colon): > 100 µM | TGI (COLO 205 colon): > 100 µM | GI50 (MCF7 breast): 8.15 µM | TGI (MCF7 breast): > 100 µM | GI50 (MALME-3M melanoma): > 100 µM | TGI (MALME-3M melanoma): > 100 µM | GI50 (SF-295 CNS): 1.66 µM | TGI (SF-295 CNS): > 100 µM

Cc1cc(N(CCOS(C)(=O)=O)CCOS(C)(=O)=O)ccc1C(=O)O
GI50 (NCI-H23 lung): 98.2 µM | TGI (NCI-H23 lung): > 100 µM | GI50 (HOP-62 NSCLC): > 100 µM | TGI (HOP-62 NSCLC): > 100 µM | GI50 (MDA-MB-231 breast): > 100 µM | TGI (MDA-MB-231 breast): > 100 µM | GI50 (SK-OV-3 ovarian): > 100 µM | TGI (SK-OV-3 ovarian): > 100 µM | GI50 (COLO 205 colon): > 100 µM | TGI (COLO 205 colon): > 100 µM | GI50 (SR leukemia): 40.7 µM | TGI (SR leukemia): > 100 µM | GI50 (MCF7 breast): 87.4 µM | TGI (MCF7 breast): > 100 µM | GI50 (MALME-3M melanoma): > 100 µM | TGI (MALME-3M melanoma): > 100 µM | GI50 (SF-295 CNS): > 100 µM | TGI (SF-295 CNS): > 100 µM

O=C(NNc1ccc(Cl)cc1)C1CCC(CNS(=O)(=O)c2ccccc2Cl)CC1 (stereo not drawn)
GI50 (NCI-H23 lung): 15 µM | TGI (NCI-H23 lung): 50.6 µM | GI50 (MDA-MB-231 breast): 4.63 µM | TGI (MDA-MB-231 breast): 29 µM | GI50 (BT-549 breast): 21.6 µM | TGI (BT-549 breast): 52.6 µM | GI50 (SR leukemia): 10.2 µM | TGI (SR leukemia): 66.4 µM | GI50 (MCF7 breast): 4.88 µM | TGI (MCF7 breast): > 100 µM | GI50 (SF-295 CNS): 4.58 µM | TGI (SF-295 CNS): 68.5 µM

N#Cc1ccccc1NC(=O)C(=O)C1NC(=S)NC1=O (stereo not drawn)
TGI (NCI-H23 lung): > 100 µM | TGI (HOP-62 NSCLC): > 100 µM | TGI (COLO 205 colon): > 100 µM | TGI (SR leukemia): > 100 µM | TGI (MALME-3M melanoma): > 100 µM | TGI (SF-295 CNS): > 100 µM
